Data from patent US6286513A, “Methods for treating superficial bladder carcinoma” (priority 1998, dated 2001).
Entries after “also recorded” stand apart in the source; their conditions may differ.

Assays:
[1] = previous studies, cited from earlier work
[2] = Toxicity comparison of high efficacy and customary intravesical MMC therapy (Table 1); type: in vivo, patients
[3] = Blood levels of MMC during high efficacy therapy; type: in vivo, patients
Ta tumors = experiment: Recurrence in patients with Ta tumors (Kaplan-Meier); type: in vivo
Source text: (§1) The Kaplan-Meier Curve is a conventional tool used to project treatment outcome such as the % of patients who remain alive or free of disease at a certain time interval. (Martin Bland, Introduction to Medical Statistics (1994) Oxford Press). The Kaplan Meier Curve was used to compare the customary experimental therapy to the high efficacy therapy. When compared to the customary experimental therapy, the high efficacy therapy increased the percentage of all patients who are projected to remain recurrence-freefor longer than 5 years from 20 to 41%. The improvement was similar for patients with T1 tumors which were growing in the deeper bladder tissue layers (i.e. increase from 16% to 44%) and for patients with Ta tumors which were growing in the urothelial surface of the bladder (i.e. increase from 20% to 37%).

[4] = tested on: Ta, T1 or Tis bladder tumors; experiment: Clinical trial of adjuvant intravesical MMC after transurethral resection: recurrence in Ta, T1 or Tis bladder tumor patients (Example 1, Table 2, FIG. 1); type: in vivo; conditions: for median time to recurrence: all patients (Ta, T1, Tis); for percentage of patients projected to be tumor recurrence-free at the end of 5 years: all patients, Kaplan-Meier projection
Protocol: One hundred and eight patients with histologically proven primary or recurrent transitional cell carcinoma of grade I to grade III and of stage Ta, T1 or Tis who had their tumors completely resected received the high efficacy therapy within 4 weeks after surgery.
The high efficacy therapy was administered once weekly for a total of six treatments. The MMC dosing solution was made by adding 40 mg of MMC to a vial containing 20 ml of sterile water.
To reduce urine production in the patients during treatment with the MMC dosing solution, the patients were instructed to refrain from fluids for 8 hours prior to and during treatment with the MMC dosing solution. To maintain the pH levels of the urine produced during treatment with the MMC dosing solution, the patients were given 1.3 grams of sodium bicarbonate the night prior to treatment, upon rising on the morning of treatment and 30 minutes prior to treatment. Then a Foley catheter was placed in the bladder of the patients and the bladder was drained by gravity. This was accomplished by holding the catheter end below the level of the bladder. The post void residual urine volume was determined using a bladder ultrasound machine. Drainage of the bladder was repeated until the residual urine volume was less than 10 ml. Drainage was aided by having the patient sit up or stand up, or reach forward while standing. Thereafter, 40 mg of MMC in 20 ml sterile water was instilled intravesically by gravity into the bladder of the patient and retained there for 2 hours. After the 2 hour therapy, bladder contents were drained from the patients and the volume and pH of the contents measured.
For purposes of comparison, 97 matching control patients from whom primary Ta, T1 or Tis bladder tumors had been completely resected were subjected to the customary experimental MMC intravesical therapy weekly for six weeks. These patients were not instructed to refrain from fluids for 8 hours prior to or during the customary experimental therapy. Prior to instillation of the 1 mg/ml MMC dosing solution, the patients were placed in the supine or dorsal lithotomy position and a Foley catheter inserted transurethrally into the bladder of the patients. The bladders were drained by gravity and the post void urine residual volume was measured. No attempts were made to further reduce the residual urine volume. Thereafter, 20 mg of MMC in 20 ml sterile water was instilled intravesically by gravity into the bladders of the patients and retained for 2 hours. After the 2 hour therapy, bladder contents were drained from the patients and the volume and pH of the contents measured.
Cytoscopy was performed on each surviving patient quarterly at three months for 2 years and then at 3 months or six months for the remaining 3 years to look for evidence of visible tumors. Urine cytology was performed on each surviving patient quarterly at three months for 2 years and then at 3 months or six months for the remaining 3 years to look for cells with aneuploid DNA contents. […] If necessary, i.e., if tumor recurrence was suspected, the follow-up included biopsy of the suspicious area and transurethral resection of the bladder tumor. Patients with proven recurrence were treated according to standards in the clinical community.
At each time period the number of patients who had developed histologically proven recurrent or progressive disease on biopsy or cytology was determined. The percentage of patients who remained tumor free at each time period after receiving the high efficacy therapy or the customary experimental therapy is shown in FIG. 1.
The Kaplan-Meier Curve is a conventional tool used to project treatment outcome such as the % of patients who remain alive or free of disease at a certain time interval. (Martin Bland, Introduction to Medical Statistics (1994) Oxford Press). The Kaplan Meier Curve was used to compare the customary experimental therapy to the high efficacy therapy. […]

Tis tumors = experiment: Recurrence in patients with Tis tumors (Example 4); type: in vivo
Protocol: Ten patients from whom one or more foci of Tis had been removed were treated weekly for six weeks with the high efficacy therapy as described above in example 1 and 12 patients from whom one or more foci of Tis had been removed were treated weekly for six with the standard MMC intravesical therapy as described in example 1. […] The projected 5-year recurrence free rate is 43% for the high efficacy treatment and 19% for the standard treatment.

T1 tumors = experiment: Recurrence in patients with T1 tumors (Kaplan-Meier); type: in vivo
Source text: as §1

[5] = customary experimental MMC intravesical therapy

What does the source list for COC12C(COC(N)=O)C3=C(C(=O)C(C)=C(N)C3=O)N1CC1NC12 (stereo not drawn) [MMC]?
systemic dose without significant host toxicity ([1]; MMC given systemically): ≤ 50 mg; blood level of MMC without significant host toxicity [1]: below 400 ng/ml; Allergy ([2]; Customary (n = 96)): 9 % of patients; Any toxicity ([2]; Customary (n = 96)): 64 % of patients; Cramp ([2]; Customary (n = 96)): 17 % of patients; Cystitis ([2]; Customary (n = 96)): 18 % of patients; Dermal ([2]; Customary (n = 96)): 10 % of patients; Dysuria ([2]; Customary (n = 96)): 19 % of patients; Fatigue ([2]; Customary (n = 96)): 20 % of patients; Fever ([2]; Customary (n = 96)): 5 % of patients; Hematuria ([2]; Customary (n = 96)): 24 % of patients; Leukopenia ([2]; Customary (n = 96)): 0 % of patients; Malaise ([2]; Customary (n = 96)): 19 % of patients; Nausea ([2]; Customary (n = 96)): 9 % of patients; Pain ([2]; Customary (n = 96)): 17 % of patients; Thrombocytopenia ([2]; Customary (n = 96)): 0 % of patients; Urgency ([2]; Customary (n = 96)): 28 % of patients; Urinary frequency ([2]; Customary (n = 96)): 33 % of patients; Vomiting ([2]; Customary (n = 96)): 5 % of patients; Allergy ([2]; High efficacy (n = 104)): 13 % of patients; Any toxicity ([2]; High efficacy (n = 104)): 72 % of patients; Cramp ([2]; High efficacy (n = 104)): 15 % of patients; Cystitis ([2]; High efficacy (n = 104)): 24 % of patients; Dermal ([2]; High efficacy (n = 104)): 15 % of patients; Dysuria ([2]; High efficacy (n = 104)): 35 % of patients; Fatigue ([2]; High efficacy (n = 104)): 19 % of patients; Fever ([2]; High efficacy (n = 104)): 5 % of patients; Hematuria ([2]; High efficacy (n = 104)): 26 % of patients; Leukopenia ([2]; High efficacy (n = 104)): 1 % of patients; Malaise ([2]; High efficacy (n = 104)): 18 % of patients; Nausea ([2]; High efficacy (n = 104)): 12 % of patients; Pain ([2]; High efficacy (n = 104)): 17 % of patients; Thrombocytopenia ([2]; High efficacy (n = 104)): 0 % of patients; Urgency ([2]; High efficacy (n = 104)): 22 % of patients; Urinary frequency ([2]; High efficacy (n = 104)): 26 % of patients; Vomiting ([2]; High efficacy (n = 104)): 4 % of patients; bone marrow toxicity ([2]; high efficacy therapy): did not exhibit any signs of bone marrow toxicity; dysuria, frequency and severity ([2]; high efficacy therapy): higher frequency of dysuria. But this toxicity was mild and did not result in termination of treatment; other toxicities (dysuria, cystitis, hematuria, cramps), severity ([2]; high efficacy therapy, a small number of patients): mild; blood levels of MMC, in most instances [3]: less than 5 ng/ml; levels of MMC in the blood of the patients, upper bound [3]: ≤ 50 ng/mL; percentage of patients projected to remain recurrence-free for longer than 5 years (Ta tumors; customary experimental therapy): 20%; percentage of patients projected to remain recurrence-free for longer than 5 years (Ta tumors; high efficacy therapy): 37%; median time to recurrence [4, 5]: 292 days; percentage of patients projected to be tumor recurrence-free at the end of 5 years [4, 5]: 20%; percentage of patients projected to remain tumor recurrence free for 5 years, vs customary therapy ([4]; high efficacy therapy, Ta, T1, Tis): more effective in enhancing the percentage or fraction of Ta, T1, Tis bladder tumor patients that are projected to remain tumor recurrence free for a period of 5 years; rate of recurrence and time interval before tumor recurrence, vs customary therapy ([4]; high efficacy therapy, Ta, T1 or Tis): more effective at reducing the rate of recurrence and increasing the time interval before tumor recurrence is observed; also recorded: tumors recurred at a later time in patients receiving the high efficacy treatment; median time to recurrence ([4]; high efficacy therapy): 754 days; percentage of patients projected to be tumor recurrence-free at the end of 5 years ([4]; high efficacy therapy): 41%; (median time to recurrence; words missing in text) (Tis tumors; customary experimental treatment): 106 days; projected 5-year recurrence free rate (Tis tumors; high efficacy treatment): 43%; projected 5-year recurrence free rate (Tis tumors; standard treatment): 19%; percentage of patients projected to remain recurrence-free for longer than 5 years (T1 tumors; customary experimental therapy): 16%; percentage of patients projected to remain recurrence-free for longer than 5 years (T1 tumors; high efficacy therapy): 44%
